Drawing on PubChem BioAssay AID200 (DTP/NCI, 2004), this text covers T/C for 13 molecules.

In this assay the test system is B6C3F1 mice, B16 melanoma ip, median survival T/C. As to the kind of experiment: NCI In Vivo Anticancer Drug Screen. Data for tumor model B16 Melanoma (intraperitoneal) in B6C3F1 mice. Particulars: endpoint: median survival time, higher = longer survival. In outline: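 Transplantable tumor in mice; treated vs vehicle control groups; survival or tumor size measured; value = T/C ratio.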

Setting [1] is: dose: 50.0 mg/kg/injection, schedule: Q01DX009 (ip), vehicle: saline with Tween-80.
[2] abbreviates: dose: 100.0 mg/kg/injection, schedule: Q01DX009 (ip), vehicle: saline with Tween-80.
[3] abbreviates: dose: 200.0 mg/kg/injection, schedule: Q01DX009 (ip), vehicle: saline with Tween-80.
The mark [4] stands for this setting: dose: 25.0 mg/kg/injection, schedule: Q01DX009 (ip), vehicle: saline with Tween-80.
Where [5] appears, read: dose: 25.0 mg/kg/injection, schedule: Q01DX009 (ip), vehicle: saline.
The mark [6] stands for this setting: dose: 50.0 mg/kg/injection, schedule: Q01DX009 (ip), vehicle: saline.
The mark [7] stands for this setting: dose: 100.0 mg/kg/injection, schedule: Q01DX009 (ip), vehicle: saline.
The mark [8] stands for this setting: dose: 200.0 mg/kg/injection, schedule: Q01DX009 (ip), vehicle: saline.
The mark [9] stands for this setting: dose: 400.0 mg/kg/injection, schedule: Q01DX009 (ip), vehicle: Klucel (hydroxypropylcellulose) (HPC).
Where [10] appears, read: dose: 25.0 mg/kg/injection, schedule: Q01DX009 (ip), vehicle: Klucel (hydroxypropylcellulose) (HPC).
Where [11] appears, read: dose: 50.0 mg/kg/injection, schedule: Q01DX009 (ip), vehicle: Klucel (hydroxypropylcellulose) (HPC).
Where [12] appears, read: dose: 100.0 mg/kg/injection, schedule: Q01DX009 (ip), vehicle: Klucel (hydroxypropylcellulose) (HPC).
Setting [13] is: dose: 200.0 mg/kg/injection, schedule: Q01DX009 (ip), vehicle: Klucel (hydroxypropylcellulose) (HPC).
[14] abbreviates: dose: 12.5 mg/kg/injection, schedule: Q01DX009 (ip), vehicle: saline.

Values joined by “and” are separate entries in the source; they are usually repeats but may differ in a detail not shown here. Equal values may be shown once. Toxic doses and inconclusive results are not listed. Where a SMILES comes first, the peptide text is derived from it. [ ]: non-standard residue; d: D form. Tyr(3,5-I2) = N[CH](Cc1cc(I)c(O)c(I)c1)C(=O)O

`COc1ccc(CC2C(=O)NC(C)C(=O)N(C)C3Cc4ccc(cc4)Oc4cc(ccc4O)CC(C(=O)NC(C)C(=O)NC(C)C(=O)N2C)N(C)C3=O)cc1` (stereo unspecified): the T/C runs as follows: (dose: 0.25 mg/kg/injection, schedule: Q01DX009 (ip), vehicle: saline with Tween-80) 158 % of control; (dose: 0.5 mg/kg/injection, schedule: Q01DX005 (ip), vehicle: saline with Tween-80) 110 % of control; (dose: 0.5 mg/kg/injection, schedule: Q01DX005 (iv), vehicle: saline with Tween-80) 102 % of control and 104 % of control; (dose: 0.5 mg/kg/injection, schedule: Q01DX009 (ip), vehicle: saline + Tween-80 + alcohol) 118 % of control; (dose: 0.5 mg/kg/injection, schedule: Q01DX009 (ip), vehicle: saline with Tween-80) 162 % of control and 166 % of control; (dose: 1.0 mg/kg/injection, schedule: Q01DX005 (ip), vehicle: saline with Tween-80) 124 % of control. Moreover, the T/C is 109 % of control and 105 % of control (dose: 1.0 mg/kg/injection, schedule: Q01DX005 (iv), vehicle: saline with Tween-80); 117 % of control (dose: 1.0 mg/kg/injection, schedule: Q01DX009 (ip), vehicle: saline + Tween-80 + alcohol); 91 % of control (dose: 1.0 mg/kg/injection, schedule: Q01DX009 (ip), vehicle: saline with Tween-80); 122 % of control and 107 % of control (dose: 2.0 mg/kg/injection, schedule: Q01DX005 (iv), vehicle: saline with Tween-80); 122 % of control (dose: 2.0 mg/kg/injection, schedule: Q01DX009 (ip), vehicle: saline with Tween-80); 122 % of control (dose: 4.0 mg/kg/injection, schedule: Q01DX005 (ip), vehicle: saline with Tween-80). In addition, the T/C reads like this: (dose: 4.0 mg/kg/injection, schedule: Q01DX005 (iv), vehicle: saline with Tween-80) 109 % of control and 111 % of control; (dose: 4.0 mg/kg/injection, schedule: Q01DX009 (ip), vehicle: other) 150 % of control; (dose: 4.0 mg/kg/injection, schedule: Q01DX009 (ip), vehicle: saline with Tween-80) 161 % of control; (dose: 8.0 mg/kg/injection, schedule: Q01DX005 (iv), vehicle: saline with Tween-80) 110 % of control and 116 % of control; (dose: 8.0 mg/kg/injection, schedule: Q01DX009 (ip), vehicle: other) 159 % of control.
As to `c1nc(N2CC2)c2cnn(C3CCCCO3)c2n1` (stereo unspecified), the T/C by setting is: under setting [1], 91 % of control; under setting [2], 93 % of control; under setting [3], 91 % of control.
For the molecule `ClC(Cl)(Cl)C1=NCc2nnn(Cc3ccccc3)c2N1`, the T/C (dose: 12.5 mg/kg/injection, schedule: Q01DX009 (ip), vehicle: distilled water + Tween-80) was 101 % of control; the T/C (dose: 12.5 mg/kg/injection, schedule: Q01DX009 (ip), vehicle: saline with Tween-80) was 105 % of control; the T/C (dose: 25.0 mg/kg/injection, schedule: Q01DX009 (ip), vehicle: distilled water + Tween-80) is 96 % of control; the T/C under setting [4] was 110 % of control; the T/C (dose: 50.0 mg/kg/injection, schedule: Q01DX009 (ip), vehicle: distilled water + Tween-80) is 93 % of control; the T/C under setting [1] was 108 % of control. Also, the T/C (dose: 100.0 mg/kg/injection, schedule: Q01DX009 (ip), vehicle: distilled water + Tween-80) was 91 % of control; the T/C under setting [2] was 105 % of control; the T/C (dose: 200.0 mg/kg/injection, schedule: Q01DX009 (ip), vehicle: distilled water + Tween-80) is 101 % of control; the T/C under setting [3] is 95 % of control; the T/C (dose: 400.0 mg/kg/injection, schedule: Q01DX009 (ip), vehicle: distilled water + Tween-80) was 101 % of control; the T/C (dose: 400.0 mg/kg/injection, schedule: Q01DX009 (ip), vehicle: saline with Tween-80) was 95 % of control.
For `N#CC(OC1OC(COC2OC(CO)C(O)C(O)C2O)C(O)C(O)C1O)c1ccccc1` (stereo unspecified), the T/C is 101 % of control under setting [5]; 100 % of control (dose: 25.0 mg/kg/injection, schedule: Q01DX009 (ip), vehicle: water); 104 % of control under setting [6]; 102 % of control (dose: 50.0 mg/kg/injection, schedule: Q01DX009 (ip), vehicle: water); 105 % of control under setting [7]; 102 % of control (dose: 100.0 mg/kg/injection, schedule: Q01DX009 (ip), vehicle: water). The T/C was 106 % of control under setting [8]; 117 % of control (dose: 200.0 mg/kg/injection, schedule: Q01DX009 (ip), vehicle: water); 101 % of control (dose: 400.0 mg/kg/injection, schedule: Q01DX009 (ip), vehicle: saline); 106 % of control (dose: 400.0 mg/kg/injection, schedule: Q01DX009 (ip), vehicle: water); 100 % of control (dose: 800.0 mg/kg/injection, schedule: Q01DX009 (ip), vehicle: saline); 106 % of control (dose: 800.0 mg/kg/injection, schedule: Q01DX009 (ip), vehicle: water).
As for `CC(=O)NC(Cc1ccccc1)C(=O)NC(Cc1cc(I)c(O)c(I)c1)C(=O)O` (stereo unspecified) (Ac-Phe-[Tyr(3,5-I2)]-OH; configuration not given here), the T/C under setting [9] was 89 % of control.
As for `O=C1CN(CO)C(=O)N1CO`, the T/C was 93 % of control under setting [10], 97 % of control under setting [11], 110 % of control under setting [12] and 103 % of control under setting [13].
On to `C[C@]12CC[C@H](O)CC1=CC[C@@H]1[C@@H]2CC[C@]2(C)C(=O)CC[C@@H]12`, for which the T/C is 100 % of control under setting [4], 97 % of control under setting [1], 101 % of control under setting [2] and 92 % of control under setting [3].
Regarding `O=c1ccn(C2OC(CO)C(O)C2O)c(=O)[nH]1` (stereo unspecified), the T/C (dose: 12.5 mg/kg/injection, schedule: Q01DX009 (ip), vehicle: Klucel (hydroxypropylcellulose) (HPC)) is 97 % of control; the T/C under setting [10] is 99 % of control; the T/C under setting [11] is 104 % of control; the T/C under setting [12] is 95 % of control; the T/C under setting [13] is 99 % of control; the T/C under setting [9] was 102 % of control. Further, the T/C (dose: 800.0 mg/kg/injection, schedule: Q01DX009 (ip), vehicle: Klucel (hydroxypropylcellulose) (HPC)) was 102 % of control.
`CCC(C)C(NC(=O)CN)C(=O)O` (stereo unspecified) (HELM PEPTIDE1{G.[CCC(C)C(N[*:1])C(=O)O]}$$$$V2.0): the T/C was 92 % of control under setting [6], 92 % of control under setting [7] and 92 % of control under setting [8].
Regarding `COc1cc(/C=C/[N+](=O)[O-])cc(Br)c1OC`, the T/C (dose: 0.75 mg/kg/injection, schedule: Q01DX009 (ip), vehicle: saline with Tween-80) is 102 % of control; the T/C (dose: 1.5 mg/kg/injection, schedule: Q01DX009 (ip), vehicle: saline with Tween-80) is 112 % of control; the T/C (dose: 3.0 mg/kg/injection, schedule: Q01DX009 (ip), vehicle: saline with Tween-80) is 98 % of control; the T/C (dose: 6.0 mg/kg/injection, schedule: Q01DX009 (ip), vehicle: saline with Tween-80) is 97 % of control; the T/C (dose: 6.25 mg/kg/injection, schedule: Q01DX009 (ip), vehicle: saline with Tween-80) was 91 % of control; the T/C (dose: 12.0 mg/kg/injection, schedule: Q01DX009 (ip), vehicle: saline with Tween-80) is 93 % of control.
With `CCN(CC)CCCNc1nccc2c(C)c3[nH]c4ccncc4c3cc12`, the T/C runs as follows: (dose: 0.38 mg/kg/injection, schedule: Q01DX009 (ip), vehicle: other) 176 % of control; (dose: 0.75 mg/kg/injection, schedule: Q01DX009 (ip), vehicle: other) 170 % of control; (dose: 1.5 mg/kg/injection, schedule: Q01DX009 (ip), vehicle: other) 180 % of control; (dose: 3.0 mg/kg/injection, schedule: Q01DX009 (ip), vehicle: other) 202 % of control; (dose: 6.0 mg/kg/injection, schedule: Q01DX009 (ip), vehicle: other) 257 % of control.
With `Nc1ncnc2c1ncn2C1OCC(O)C1O` (stereo unspecified), the T/C reads like this: under setting [14], 118 % of control; under setting [5], 121 % of control; (dose: 100.0 mg/kg/injection, schedule: Q01DX009 (ip), vehicle: suspension in saline) 124 % of control.
`NC1=NC(=O)N2CC12` (stereo unspecified): the T/C was 105 % of control under setting [14], 95 % of control under setting [5], 95 % of control under setting [6] and 89 % of control under setting [7].
